Earlier results, collected in US8357679B2, “Hexafluoroisopropanol derivatives” (MSD Oss B.V., priority 2008, dated 2013).

Key:
[1] = in vivo
[2] = in vivo; remark: listed apart in the source
[3] = test system: vascular smooth muscle cell; conditions: in vitro
tumours = conditions: animal model of prostate cancer

## O=S(=O)(c1ccccc1)N(CC(F)(F)F)c1ccc(C(O)(C(F)(F)F)C(F)(F)F)cc1 [Example T0901317, T0901317]
[1]
  neointima formation following balloon injury: inhibit
[2]
  deposition of β-amyloid: lower deposition of β-amyloid
  memory: improve memory
[3]
  vascular smooth muscle cell proliferation: inhibit
tumours
  progression of tumours: delayed progression of tumours
